The text below walks through data of US9957288B2, “Pyrabactin analogues to modulate plant development” (Universiteit Gent, priority 2014, dated 2018).

Like-named read-outs stand apart in the source and are kept apart here.

One experiment has as its system tobacco epidermal strips. Description: Stomatal closure assay on epidermal strips. The experiment is classed as cell-based, Nicotiana tabacum.
Experiment [1] has as its system Arabidopsis thaliana seeds. As to the kind of experiment: Arabidopsis thaliana seed germination assay. The experiment is classed as in vivo.
The test system of experiment [2] is etiolated Arabidopsis thaliana seedlings.
Experiment [3] concerns Arabidopsis thaliana Columbia (Col0) seedlings. Description: Lateral root initiation (lateral roots + lateral root primordia, number and density). In kind it is in vivo.
Experiment [4] deals with Arabidopsis thaliana seedlings. As to conditions: in vivo.
The subject of experiment [5] is Nicotiana benthamiana leaves. Description: Leaf dehydration assay (weight loss of pre-treated detached leaves in dry air flow). The experiment is classed as in vivo. As to conditions: pre-treatment: ABA 10 and 100 μM, analogues 10 μM; 6 h dry air flow.
The test system of experiment [6] is Arabidopsis thaliana Columbia (Col0) seedlings. Description: Primary root elongation of etiolated seedlings on compound medium. In kind it is in vivo.
Where [7] appears, read: 13 d old etiolated seedlings, 10 μM.

For `CCOP(=O)(NCc1ccccn1)c1cccc2ccccc12` (stereo not drawn) [Analogue E9, Ethyl N-(pyridin-2-ylmethyl)-P-(napht-1-yl)phosphonamidate], in the experiment on tobacco epidermal strips, the Stomata came to 0 and the “effect on stomatal aperture” value was “did not affect the size of the stomatal aperture”. Moreover, the Seed germination in experiment [1] (in vivo) is 0. Besides, the AR result in experiment [2] (in vivo) is listed as “−”. Moreover, in experiment [3] (in vivo), the LR result is “+”, the “effect on LR+ LRP density (per cm primary root)” value (from here on “effect … (per cm primary root)”) is reported as “reduced the numbers of LR+ LRP similarly to ABA” and the “effect on number of LR+ LRP (lateral root initiation)” value (“effect on number of LR+ LRP” for short) is reported as “modest to weak inhibitors of lateral root formation”. The Shoot in experiment [4] is reported as 0. Also, the “effect on leaf weight loss / transpiration” value in experiment [5] is recorded as “reduction of transpiration”. For the same compound, in experiment [6] (in vivo), the PR stood at 0 and the “effect on primary root growth” value is recorded as “modest inhibitors of primary root elongation”.
As for `CCOP(=O)(NCc1ccccn1)c1ccc(Br)c2ccccc12` (stereo not drawn) [Analogue E1, Ethyl N-(pyridin-2-ylmethyl)-P-(4-bromonapht-1-yl)phosphonamidate], in the experiment with tobacco epidermal strips, the Stomata entry was “−”; the “effect on stomatal aperture” value is “did not cause closure of the stomata and even induced the opening”. In addition, in experiment [1] (in vivo), the Seed germination came to 0. Also, the AR entry in experiment [2] (in vivo) is reported as “−”. Further, in experiment [3] (in vivo), the LR result was “++”, the “effect … (per cm primary root)” value was “strong density reduction (even stronger than ABA)” and the “effect on number of LR+ LRP” value is “strong inhibitors”. The compound further returned a Shoot in experiment [4] of 0. In addition, the “effect on leaf weight loss / transpiration” value in experiment [5] is on record as “reduction of transpiration”. In experiment [6] (in vivo), the PR entry was “+” and the “effect on primary root growth” value was “modest inhibitors of primary root elongation”.
For `O=P(O)(NCc1ccccn1)c1ccc(Br)c2ccccc12` [Analogue E10, Hydrogen N-(pyridin-2-ylmethyl)-P-(4-bromonapht-1-yl)phosphonamidate], the “effect on stomatal aperture” value in the experiment on tobacco epidermal strips (10 μM) was “intermediate stomatal closure”. The Stomata result with tobacco epidermal strips (10 μM, compared with control not-treated epidermal strips) is “+”. Besides, the Seed germination in experiment [1] (10 μM, compared with control not-treated seeds) is recorded as 0. The AR result in experiment [2] (adventitious root, 10 μM, compared with control not-treated seedlings) is listed as “−”. Moreover, in experiment [3] (setting [7]), the “effect … (per cm primary root)” value is recorded as “reduced the numbers of LR+ LRP similarly to ABA” and the “effect on number of LR+ LRP” value is “modest to weak inhibitors of lateral root formation”. Besides, the LR entry in experiment [3] (lateral root, 10 μM, compared with control not-treated seedlings) is recorded as “+”. In addition, in experiment [4], the Shoot is given as 0. Further, in experiment [5], the “effect on leaf weight loss / transpiration” value is “reduction of transpiration”. For the same compound, the “effect on primary root growth” value in experiment [6] (10 μM) is on record as “modest inhibitors of primary root elongation”. Further, the PR entry in experiment [6] (primary root, 10 μM, compared with control not-treated seedlings) is recorded as “+”.
